Experimental data from ChEMBL document CHEMBL4616708, “Antitumor Potential of the Isoflavonoids (+)- and (-)-2,3,9-Trimethoxypterocarpan: Mechanism-of-Action Studies” (ACS Med Chem Lett, 2020).
Active and inactive are the calls of the source. No cut-off for these calls is given here.

Experiments:
OVCAR-8 [1] = assay: Cell cycle arrest in human OVCAR8 cells assessed as accumulation at G0/G1 phase at 2.5 uM in presence of PTX incubated for 24 hrs by propidium iodide staining based flow cytometry (reference value: 67.06 +/- 1.42%); type: functional
OVCAR-8 [2] = assay: Cell cycle arrest in human OVCAR8 cells assessed as accumulation at G0/G1 phase at 2.5 uM incubated for 24 hrs by propidium iodide staining based flow cytometry (reference value: 67.06 +/- 1.42%); type: functional
Lytechinus variegatus [3] = assay: Antimitotic activity against sea urchin eggs assessed as inhibition of egg development at blastulation stage; type: functional, organism-based
SF-295 = assay: Cytotoxicity against human SF295 cells assessed as reduction in cell viability incubated for 72 hrs by MTT assay; type: functional, cell-based; conditions: SF-295, 72 h
Lytechinus variegatus [4] = assay: Antimitotic activity against sea urchin eggs assessed as inhibition of development at second cleavage; type: functional, organism-based
OVCAR-8 [5] = assay: Cell cycle arrest in human OVCAR8 cells assessed as accumulation at G2/M phase at 2.5 uM in presence of PTX incubated for 24 hrs by propidium iodide staining based flow cytometry (reference value: 25.78 +/- 0.71%); type: functional
OVCAR-8 [6] = assay: Cell cycle arrest in human OVCAR8 cells assessed as accumulation at G2/M phase at 10 uM incubated for 24 hrs by propidium iodide staining based flow cytometry (reference value: 25.78 +/- 0.71%); type: functional
HL-60 = assay: Cytotoxicity against human HL60 cells assessed as reduction in cell viability incubated for 72 hrs by MTT assay; type: functional, cell-based; conditions: HL-60, 72 h
OVCAR-8 [7] = assay: Cell cycle arrest in human OVCAR8 cells assessed as accumulation at S phase at 2.5 uM in presence of PTX incubated for 24 hrs by propidium iodide staining based flow cytometry (reference value: 7.1 +/- 0.86%); type: functional
OVCAR-8 [8] = assay: Cell cycle arrest in human OVCAR8 cells assessed as accumulation at S phase at 10 uM incubated for 24 hrs by propidium iodide staining based flow cytometry (reference value: 7.1 +/- 0.86%); type: functional
OVCAR-8 [9] = assay: Induction of apoptosis in human OVCAR8 cells assessed as reduction in cell viability incubated for 48 hrs by acridine orange and ethidium bromide dye based fluorescence microscopy analysis; type: functional
Lytechinus variegatus [10] = assay: Antimitotic activity against sea urchin eggs assessed as inhibition of egg development at first cleavage; type: functional, organism-based
OVCAR-8 [11] = assay: Cytotoxicity against human OVCAR8 cells assessed as reduction in cell viability measured upto 98 hrs by xcCELLigence RTCA analysis; type: functional, cell-based
OVCAR-8 [12] = assay: Induction of apoptosis in human OVCAR8 cells assessed as chromatin condensation at 20 to 40 uM incubated for 48 hrs by hematoxylin and eosin staining based […] analysis; type: functional, cell-based
OVCAR-8 [13] = assay: Cell cycle arrest in human OVCAR8 cells assessed as accumulation at G0/G1 phase at 5 uM incubated for 24 hrs by propidium iodide staining based flow cytometry (reference value: 67.06 +/- 1.42%); type: functional
OVCAR-8 [14] = assay: Cell cycle arrest in human OVCAR8 cells assessed as accumulation at G0/G1 phase at 10 uM incubated for 24 hrs by propidium iodide staining based flow cytometry (reference value: 67.06 +/- 1.42%); type: functional
OVCAR-8 [15] = assay: Cytotoxicity against human OVCAR8 cells assessed as reduction in cell viability incubated for 72 hrs by MTT assay; type: functional, cell-based; conditions: OVCAR-8, 72 h
OVCAR-8 [16] = assay: Cell cycle arrest in human OVCAR8 cells assessed as accumulation at S phase at 2.5 uM incubated for 24 hrs by propidium iodide staining based flow cytometry (reference value: 7.1 +/- 0.86%); type: functional
OVCAR-8 [17] = assay: Cell cycle arrest in human OVCAR8 cells assessed as accumulation at S phase at 5 uM incubated for 24 hrs by propidium iodide staining based flow cytometry (reference value: 7.1 +/- 0.86%); type: functional
OVCAR-8 [18] = assay: Cell cycle arrest in human OVCAR8 cells assessed as accumulation at G2/M phase at 2.5 uM incubated for 24 hrs by propidium iodide staining based flow cytometry (reference value: 25.78 +/- 0.71%); type: functional
HCT-116 = assay: Cytotoxicity against human HCT116 cells assessed as reduction in cell viability incubated for 72 hrs by MTT assay; type: functional, cell-based; conditions: HCT-116, 72 h
[19] = Cytotoxicity against human PBMC assessed as cell viability at 10 ug/ml incubated for 72 hrs by trypan blue dye based assay; conditions: read-out: Activity
MCF7 = assay: Cell cycle arrest in human MCF7 cells assessed as increase in accumulation at G2/M phase at 8 uM incubated for 24 hrs by propidium iodide staining based flow cytometry relative to control; type: functional
OVCAR-8 [20] = assay: Induction of apoptosis in human OVCAR8 cells assessed as increase in apoptotic cells incubated for 48 hrs by acridine orange and ethidium bromide dye based fluorescence microscopy analysis; type: functional, cell-based
OVCAR-8 [21] = assay: Cell cycle arrest in human OVCAR8 cells assessed as accumulation at G2/M phase at 5 uM incubated for 24 hrs by propidium iodide staining based flow cytometry (reference value: 25.78 +/- 0.71%); type: functional
OVCAR-8 [22] = assay: Induction of apoptosis in human OVCAR8 cells assessed as nuclear fragmentation at 0.03 uM incubated for 48 hrs by hematoxylin and eosin staining based […] analysis; type: functional, cell-based
OVCAR-8 [23] = assay: Cytotoxicity against human OVCAR8 cells assessed as reduction in cell viability at 0.05 uM measured upto 98 hrs by xcCELLigence RTCA analysis; type: functional, cell-based
OVCAR-8 [24] = assay: Induction of apoptosis in human OVCAR8 cells assessed as chromatin condensation at 0.03 uM incubated for 48 hrs by hematoxylin and eosin staining based […] analysis; type: functional, cell-based
OVCAR-8 [25] = assay: Induction of apoptosis in human OVCAR8 cells assessed as increase in apoptotic cells at 0.03 uM incubated for 48 hrs by acridine orange and ethidium bromide dye based fluorescence microscopy analysis; type: functional, cell-based
OVCAR-8 [26] = assay: Cell cycle arrest in human OVCAR8 cells assessed as accumulation at G2/M phase at 0.05 uM incubated for 24 hrs by propidium iodide staining based flow cytometry (reference value: 25.78 +/- 0.71%); type: functional
OVCAR-8 [27] = assay: Induction of apoptosis in human OVCAR8 cells assessed as reduction in cell volume at 0.03 uM incubated for 48 hrs by hematoxylin and eosin staining based […] analysis; type: functional
OVCAR-8 [28] = assay: Cell cycle arrest in human OVCAR8 cells assessed as accumulation at S phase at 0.05 uM incubated for 24 hrs by propidium iodide staining based flow cytometry (reference value: 7.1 +/- 0.86%); type: functional
OVCAR-8 [29] = assay: Induction of apoptosis in human OVCAR8 cells assessed as reduction in cell viability at 0.03 uM incubated for 48 hrs by acridine orange and ethidium bromide dye based fluorescence microscopy analysis; type: functional
OVCAR-8 [30] = assay: Cell cycle arrest in human OVCAR8 cells assessed as accumulation at G0/G1 phase at 0.05 uM incubated for 24 hrs by propidium iodide staining based flow cytometry (reference value: 67.06 +/- 1.42%); type: functional
OVCAR-8 [31] = assay: Induction of apoptosis in human OVCAR8 cells assessed as reduction in cell viability at 0.6 uM incubated for 48 hrs by acridine orange and ethidium bromide dye based fluorescence microscopy analysis; type: functional
OVCAR-8 [32] = assay: Induction of apoptosis in human OVCAR8 cells assessed as increase in apoptotic cells at 0.6 uM incubated for 48 hrs by acridine orange and ethidium bromide dye based fluorescence microscopy analysis; type: functional, cell-based
OVCAR-8 [33] = assay: Cytotoxicity against human OVCAR8 cells assessed as reduction in cell viability at 1 to 4 uM measured upto 98 hrs by xcCELLigence RTCA analysis; type: functional, cell-based

What does the source list for `COc1ccc2c(c1)O[C@@H]1c3cc(OC)c(OC)cc3OC[C@H]21`?
Activity (OVCAR-8 [1]): 10.98%; Activity (OVCAR-8 [2]): 58.16%; IC50 (Lytechinus variegatus [3]): 10.7 nM; IC50 (SF-295): 3610 nM; IC50 (Lytechinus variegatus [4]): 12.3 nM; Activity (OVCAR-8 [5]): 78.62%; Activity (OVCAR-8 [6]): 79.13%; IC50 (HL-60): 200 nM; Activity (OVCAR-8 [7]): 10.39%; Activity (OVCAR-8 [8]): 9.92%; Activity (OVCAR-8 [9]): Dose-dependent effect; IC50 (Lytechinus variegatus [10]): 7.94 nM; Activity (OVCAR-8 [11]): Dose-dependent effect; Activity (OVCAR-8 [12]): Active; Activity (OVCAR-8 [13]): 15.83%; Activity (OVCAR-8 [14]): 10.84%; IC50 (OVCAR-8 [15]): 1790 nM; Activity (OVCAR-8 [16]): 9.1%; Activity (OVCAR-8 [17]): 8.76%; Activity (OVCAR-8 [18]): 32.71%; IC50 (HCT-116): 2420 nM; viability at 72 h, 10 ug/ml [19]: 81%; Activity (MCF7): 32%; Activity (OVCAR-8 [20]): Dose-dependent effect; Activity (OVCAR-8 [21]): 75.24%

With `CC(=O)O[C@H]1C(=O)[C@@]2(C)[C@H]([C@H](OC(=O)c3ccccc3)[C@]3(O)C[C@H](OC(=O)[C@H](O)[C@@H](NC(=O)c4ccccc4)c4ccccc4)C(C)=C1C3(C)C)[C@]1(OC(C)=O)CO[C@@H]1C[C@@H]2O` [PACLITAXEL] as the compound, how does the Activity (OVCAR-8 [22]) read?
Its Activity is “Active”.

What about the Activity (OVCAR-8 [23]) of the same compound?
Its Activity is “Active”.

And the Activity (OVCAR-8 [24])?
Its Activity is “Active”.

And the Activity (OVCAR-8 [25])?
Its Activity is “Active”.

What about the Activity (OVCAR-8 [26]) of the same compound?
Its Activity is 49.97%.

And the Activity (OVCAR-8 [27])?
Its Activity is “Active”.

What about the Activity (OVCAR-8 [28]) of the same compound?
Its Activity is 15.72%.

And the Activity (OVCAR-8 [29])?
Its Activity is “Active”.

What about the Activity (OVCAR-8 [30]) of the same compound?
Its Activity is 34.28%.

With `COc1ccc2c(c1)O[C@H]1c3cc(OC)c(OC)cc3OC[C@@H]21` as the compound, how does the IC50 (SF-295) read?
The IC50 was 32800 nM.

What about the IC50 (HL-60) of the same compound?
Its IC50 is 82800 nM.

What about the IC50 (OVCAR-8 [15]) of the same compound?
The IC50 was 82800 nM.

What about the IC50 (HCT-116) of the same compound?
The IC50 was 38500 nM.

Which results are given for `COc1cccc2c1C(=O)c1c(O)c3c(c(O)c1C2=O)C[C@@](O)(C(=O)CO)C[C@@H]3O[C@H]1C[C@H](N)[C@H](O)[C@H](C)O1` [DOXORUBICIN]?
IC50 (SF-295): 80 nM; IC50 (HL-60): 40 nM; Activity (OVCAR-8 [31]): Active; Activity (OVCAR-8 [32]): Active

With `COc1ccc2c(c1)OC1c3cc(OC)c(OC)cc3OCC21` (racemic) as the compound, how does the IC50 (SF-295) read?
The IC50 was 14000 nM.

What about the Activity (OVCAR-8 [6]) of the same compound?
Its Activity is 42.06%.

And the IC50 (HL-60)?
Its IC50 is 760 nM.

And the Activity (OVCAR-8 [8])?
The Activity was 10.93%.

What about the Activity (OVCAR-8 [33]) of the same compound?
The Activity was “inactive”.

And the Activity (OVCAR-8 [13])?
The Activity was 52.61%.

And the Activity (OVCAR-8 [14])?
The Activity was 46.72%.

And the IC50 (OVCAR-8 [15])?
Its IC50 is 5930 nM.

And the Activity (OVCAR-8 [17])?
Its Activity is 10.02%.

And the IC50 (HCT-116)?
Its IC50 is 11400 nM.

And the Activity (OVCAR-8 [21])?
The Activity was 37.16%.
